Experimental data from US11191820B2, “Method for inducing early T memory response with short peptides anti-tumor vaccine” (OSE IMMUNOTHERAPEUTICS, priority 2015, dated 2021).

Legend:
Assay type in all cases: in vivo, human
[1] = test system: central memory T cells; assay: Central memory T cell cultured ELISPOT, phase 2 trial in advanced NSCLC
Description: CTL Immune responses measured though cultured Elispot. The immunogenicity was measured in Phase 2 clinical trial on cryopreserved PBMC from each test sample were thawed in 5% human culture medium (RPMI-1640 medium with 25 mM HEPES, supplemented with 5% human AB serum, 4 mM L-glutamine, 0.5 mM sodium pyruvate, 0.1 mM MEM non-essential amino acids, 100 μg/ml streptomycin, and 100 U/ml penicillin) containing 30 μg/ml DNAase. After centrifugation for 5 minutes at 1200 rpm, the cell pellets were resuspended in 5% human culture medium and washed 2 times. For the central Memory T cell cultured ELISPOT assay, 2×10^6/ml PBMC were placed in replicate wells in a 48-well plates and stimulated for 10 days with 10 μg/ml of each peptide. As a positive control, PBMC were also stimulated with a pool of recall viral peptides. Human rIL2 (10 U/ml) was added to the peptide-stimulated cultures at day 1, day 4 and day 7. After 10 days the stimulated cells were harvested and plated at a concentration of 5×10^4/well. Assay wells also received irradiated autologous PBMC (1×10^5/well) and 10 μg/ml peptide, either the vaccine peptide, irrelevant peptide or positive control peptides. Cells stimulated in vitro with each analog epitope were also tested against the corresponding wild-type epitope.
Data analysis and acceptance criteria. Mean and standard deviation (SD) of spots in replicate wells were calculated in all assays by transferring raw ELISPOT data from each experiment to an Excel-based computer program. Positive vaccine-induced T-cell responses were determined according to the criteria described below.
Acceptance Criteria for peptide-Induced specific T-cell response through central memory T cells: The positive criteria for CTL responses used in the phase 2 trial was identical to the criteria in the phase 1/2 trials which was established prospectively after analyzing the variability of pre-treatment responses in patients against each vaccine epitope and the irrelevant HBV control epitope. A positive peptide-induced CTL/T memory response to a given epitope met all of the following conditions: 1) was greater than 5 SFC above the irrelevant epitope response, 2) was greater than the mean SFC of the irrelevant epitope response, plus 2 SD, and 3) was two-fold greater than the SFC response in the pre-vaccination sample from the same patient, plus 2 SD. The inclusion of “plus two standard deviations” was used to accommodate the assay variability and served to increase the criteria stringency.

[2] = test system: central memory T cells; assay: Cultured IFN-γ ELISPOT after 10-day in vitro stimulation of PBMC, phase 1/2 colon cancer trial of OSE-2101; set-up: key to net SFC of vaccine positive CTL responses: —, indicates SFC response did not meet criteria and vaccine response was negative; settings: for Mean SFC: 10 colon patients
Description: (§1) Clinical study design. Both trials were designed as phase 1/2, open label, multi-center, single dose, multiple administration studies to evaluate the safety and immunogenicity of the OSE-2101 immunotherapy. Patients were treated with 1 ml OSE-2101 every 3 weeks for a total of six doses. Each dose was administered subcutaneously in the same vicinity in the deltoid or upper thigh region, or at a contralateral site if local side-effects were observed. The study duration for each completed patient was 18 weeks. Clinical responses or patient survival were not measured in either phase 1/2 studies.
(§2) Clinical sample processing. Blood or leukapheresis product was obtained from patients at the pre-treatment, the Week 9 and Week 18 time points, 3 weeks after the third and sixth dose of OSE-2101 respectively. Peripheral blood mononuclear cells (PBMC) were isolated from samples within 24 hours of collection using a FICOLL-PAQUE density gradient and cryopreserved in containers designed to ensure optimal freezing (Mr. Frosty, Nalgene). For use, cells were rapidly thawed at 37° C. then transferred to human AB serum-containing medium for work-up.
(§3) Measurement of central T memory cells responses and T effector memory cells. The CTL responses in 16 total patients (10 colon and six NSCLC) were monitored for CTL responses against each epitope and against the wild-type epitope of epitopes analogs. For each patient, the pre-treatment, Week 9 and Week 18 time points were batch-tested in the same experiment to allow pre- versus post-treatment response comparison in the same experiment. Central T memory cells responses were measured using an IFN-γ enzyme-linked immunospot (cultured ELISPOT) assay following in vitro stimulation of PBMC for 10 days with each vaccine epitope. Briefly, PBMC from each time point were stimulated on day 0 with 10 μg/ml of each epitope individually in replicate in 48-well culture plates (2×10^6 PBMC/well). All cultures were fed with rIL-2 (Endogen, Woburn, Mass.; 10 U/ml final concentration) on days 1, 4 and 7. Ten days after initiation of culture, cells were harvested and tested for activity against specific vaccine peptides and corresponding wild-type peptides of vaccine analogs in the T memory ELISPOT assay. Cells were tested in Millipore IP 96-well plates pre-coated with mouse anti-human IFN-γ antibody (Mabtech USA, Cincinnati, Ohio). Five×10^4 cells and 1.25×10^4 cells from each culture were plated in triplicate wells together with 10^5 irradiated autologous PBMC and 10 μg/ml peptide. As a control, CTL were also tested against an irrelevant HLA-A2.1-binding HBV peptide. After 20 hours incubation, T memory ELISPOT plates were developed by performing sequential incubations with biotinylated anti-human IFN-γ antibody (Mabtech USA), Avidin-Peroxidase Complex (APC, Vector Laboratories, Burlingame, Calif.), and 3-amino-9-ethyl carbazole (AEC) substrate (Sigma Aldrich, St. Louis, Mo.). Spot-forming cells (SFC) were enumerated using a computer-assisted image analysis system (Zeiss KS ELISPOT Reader, Carl Zeiss MicroImaging, Thornwood, N.J.). Data is reported as the net SFC per 5×10^4 cells after subtracting spots induced with the irrelevant HBV peptide.

[3] = test system: central memory T cells; assay: Cultured IFN-γ ELISPOT after 10-day in vitro stimulation of PBMC, phase 1/2 NSCLC trial of OSE-2101; set-up: key to net SFC of vaccine positive CTL responses: —, indicates SFC response did not meet criteria and vaccine response was negative; settings: for No. Positive Responses: 6 NSCLC patients
Description: as §1, §2, §3

**Q.** How did the “% of patients with positive CTL/central memory T cell response” value ([1]; phase 2, month 9) turn out when RLLQETELV [HER2-689-WT] was run?
**A.** The value was 0%.

**Q.** What about the “patients with positive CTL/central memory T cell response / patients tested” value ([1]; phase 2, month 9) of the same sequence?
**A.** The value was 0/7.

**Q.** What about the “% of patients with positive CTL/central memory T cell response” value ([1]; phase 2, month 12) of the same sequence?
**A.** The value was 0%.

**Q.** What about the “patients with positive CTL/central memory T cell response / patients tested” value ([1]; phase 2, month 12) of the same sequence?
**A.** The value was 0/4.

**Q.** And the “% of patients with positive CTL/central memory T cell response” value ([1]; phase 2, week 9)?
**A.** The value was 36%.

**Q.** What about the “patients with positive CTL/central memory T cell response / patients tested” value ([1]; phase 2, week 9) of the same sequence?
**A.** The value was 4/11.

**Q.** And the “% of patients with positive CTL/central memory T cell response” value ([1]; phase 2, week 18)?
**A.** Its value is 27%.

**Q.** And the “patients with positive CTL/central memory T cell response / patients tested” value ([1]; phase 2, week 18)?
**A.** The value was 3/11.

**Q.** And the “% of patients with positive CTL/central memory T cell response” value ([1]; phase 2, week 30)?
**A.** The value was 0%.

**Q.** And the “patients with positive CTL/central memory T cell response / patients tested” value ([1]; phase 2, week 30)?
**A.** Its value is 0/6.

**Q.** KVAEIVHFL [MAGE3.112I5 A] was tested. Which “Mean SFC” value ([2]; Week 9) did it give?
**A.** Its value is 49.2 SFC per 50,000 cells.

**Q.** What about the “Mean SFC” value ([2]; Week 18) of the same sequence?
**A.** The value was 77.8 SFC per 50,000 cells.

**Q.** And the “net SFC of vaccine positive CTL responses” value (from here on “net SFC”) ([2]; colon patient 551, Week 9)?
**A.** Its value is “—”.

**Q.** What about the “net SFC” value ([2]; colon patient 551, Week 18) of the same sequence?
**A.** The value was 8.7 SFC per 50,000 cells.

**Q.** What about the “net SFC” value ([2]; colon patient 601, Week 9) of the same sequence?
**A.** The value was 27.0 SFC per 50,000 cells.

**Q.** And the “net SFC” value ([2]; colon patient 601, Week 18)?
**A.** Its value is “—”.

**Q.** And the “net SFC” value ([2]; colon patient 602, Week 9)?
**A.** Its value is “—”.

**Q.** And the “net SFC” value ([2]; colon patient 602, Week 18)?
**A.** Its value is “—”.

**Q.** What about the “net SFC” value ([2]; colon patient 603, Week 9) of the same sequence?
**A.** Its value is “—”.

**Q.** What about the “net SFC” value ([2]; colon patient 603, Week 18) of the same sequence?
**A.** Its value is 16.0 SFC per 50,000 cells.

**Q.** What about the “net SFC” value ([2]; colon patient 604, Week 9) of the same sequence?
**A.** The value was 60.3 SFC per 50,000 cells.

**Q.** And the “net SFC” value ([2]; colon patient 604, Week 18)?
**A.** Its value is 268.0 SFC per 50,000 cells.

**Q.** What about the “net SFC” value ([2]; colon patient 605, Week 9) of the same sequence?
**A.** Its value is “—”.

**Q.** What about the “net SFC” value ([2]; colon patient 605, Week 18) of the same sequence?
**A.** The value was “—”.

**Q.** What about the “net SFC” value ([2]; colon patient 606, Week 9) of the same sequence?
**A.** Its value is “—”.

**Q.** And the “net SFC” value ([2]; colon patient 606, Week 18)?
**A.** The value was 18.7 SFC per 50,000 cells.

**Q.** What about the “net SFC” value ([2]; colon patient 607, Week 9) of the same sequence?
**A.** The value was 60.3 SFC per 50,000 cells.

**Q.** What about the “net SFC” value ([2]; colon patient 607, Week 18) of the same sequence?
**A.** The value was “—”.

**Q.** What about the “net SFC” value ([2]; colon patient 608, Week 9) of the same sequence?
**A.** The value was “—”.

**Q.** And the “net SFC” value ([2]; colon patient 608, Week 18)?
**A.** Its value is “—”.

**Q.** What about the “net SFC” value ([2]; colon patient 609, Week 9) of the same sequence?
**A.** The value was “—”.

**Q.** What about the “net SFC” value ([2]; colon patient 609, Week 18) of the same sequence?
**A.** Its value is “—”.

**Q.** And the “No. Positive Responses” value ([3]; Week 9)?
**A.** The value was 0.

**Q.** What about the “No. Positive Responses” value ([3]; Week 18) of the same sequence?
**A.** Its value is 0.

**Q.** What about the “net SFC” value ([3]; NSCLC patient 201, Week 9) of the same sequence?
**A.** Its value is “—”.

**Q.** What about the “net SFC” value ([3]; NSCLC patient 201, Week 18) of the same sequence?
**A.** Its value is “—”.

**Q.** And the “net SFC” value ([3]; NSCLC patient 502, Week 9)?
**A.** Its value is “—”.

**Q.** And the “net SFC” value ([3]; NSCLC patient 502, Week 18)?
**A.** Its value is “—”.

**Q.** What about the “net SFC” value ([3]; NSCLC patient 504, Week 9) of the same sequence?
**A.** The value was “—”.

**Q.** And the “net SFC” value ([3]; NSCLC patient 504, Week 18)?
**A.** The value was “—”.

**Q.** And the “net SFC” value ([3]; NSCLC patient 505, Week 9)?
**A.** Its value is “—”.

**Q.** What about the “net SFC” value ([3]; NSCLC patient 505, Week 18) of the same sequence?
**A.** The value was “—”.

**Q.** And the “net SFC” value ([3]; NSCLC patient 532, Week 9)?
**A.** The value was “—”.

**Q.** What about the “net SFC” value ([3]; NSCLC patient 532, Week 18) of the same sequence?
**A.** Its value is “—”.

**Q.** What about the “net SFC” value ([3]; NSCLC patient 651, Week 9) of the same sequence?
**A.** Its value is “—”.

**Q.** And the “net SFC” value ([3]; NSCLC patient 651, Week 18)?
**A.** Its value is “—”.

**Q.** And the “% of patients with positive CTL/central memory T cell response” value ([1]; phase 2, month 9)?
**A.** Its value is 0%.

**Q.** And the “patients with positive CTL/central memory T cell response / patients tested” value ([1]; phase 2, month 9)?
**A.** Its value is 0/7.

**Q.** What about the “% of patients with positive CTL/central memory T cell response” value ([1]; phase 2, month 12) of the same sequence?
**A.** The value was 0%.

**Q.** And the “patients with positive CTL/central memory T cell response / patients tested” value ([1]; phase 2, month 12)?
**A.** Its value is 0/4.

**Q.** And the “% of patients with positive CTL/central memory T cell response” value ([1]; phase 2, week 9)?
**A.** Its value is 30%.

**Q.** And the “patients with positive CTL/central memory T cell response / patients tested” value ([1]; phase 2, week 9)?
**A.** The value was 10/33.

**Q.** And the “% of patients with positive CTL/central memory T cell response” value ([1]; phase 2, week 18)?
**A.** The value was 25%.

**Q.** What about the “patients with positive CTL/central memory T cell response / patients tested” value ([1]; phase 2, week 18) of the same sequence?
**A.** Its value is 8/32.

**Q.** And the “% of patients with positive CTL/central memory T cell response” value ([1]; phase 2, week 30)?
**A.** The value was 43%.

**Q.** And the “patients with positive CTL/central memory T cell response / patients tested” value ([1]; phase 2, week 30)?
**A.** Its value is 10/23.
